Target: Topoisomerase II (Topo II)
Assay: ELISA-based Topo II inhibition assay kit (Abcam), recombinant human enzyme, colorimetric
Format: biochemical

O=c1oc(=O)c2c(ccc3nc4ccccc4[nH]c32)c1-c1ccccc1 [aotaphenazine]
IC50: 45 nM

Source: PMC12680189, “Aotaphenazine, a rare hydrophenazine, targets topoisomerase II with anticancer efficacy: In silico to in vitro evidence” (PLOS One, 2025)
